In patent US20230165876A1, “METHYLTHIONINIUM COMPOUNDS FOR USE IN THE TREATMENT OF COVID-19” (WisTa Laboratories Ltd., priority 2020, published 2023):
Where a SMILES comes first, the peptide text is derived from it. The star is where a group is joined. Cbz = O=C(OCc1ccccc1)*; CHN2 = [N-]=[N+]=C*

Assays:
SARS-CoV-2 [1] = conditions: Vero E6 cells; screen concentration 5 µM; cited from earlier work
red cells = conditions: administered intravenously; LMTM relative to MTC; cited from earlier work
[2] = Oral doses with anti-viral activity and LMTM equivalent calculated from AD activity data; set-up: species or system human; conditions: calculated using the activity data in AD as basis for comparison
[3] = Phase 3 double-blind controlled studies of LMTM in AD and bvFTD, safety; format: in vivo, human
Protocol: Three Phase 3, double-blind, controlled studies of LMTM have been completed (one each in subjects with mild and mild to moderate AD and one in subjects with bvFTD). Results of the AD studies have been published (Gauthier et al., 2016; Wilcock et al., 2018; Shiells et al., 2020). These studies provide an overview of the more common adverse events that might be expected at a dose of LMTM 16 mg/day. In these three studies, 1897 subjects received at least one dose of LMTM. Of these, 860 subjects received LMTM 8 mg/day and 1037 subjects received at least one dose of LMTM in the higher doses of 150 to 250 mg/day. The mean ages of study participants were 71 years (ranging up to 89 years) for subjects with AD and 63 years (ranging up to 79 years) for subjects with bvFTD.
The overall person-years of exposure to LMTM 8 mg/day was 995.2 person-years and to the higher LMTM doses of 150 to 250 mg/day was 988.6 person-years. Six percent (6%) of the subjects discontinued LMTM 8 mg/day due to adverse events; the proportion of subjects discontinuing due to adverse events in the higher dose groups was higher (14%).
The most common Treatment-Emergent Adverse Events (TEAEs) considered at least possibly associated with LMTM given in a dose of 8 mg/day were gastrointestinal (mostly diarrhoea and nausea), genitourinary (mostly pollakiuria and urinary incontinence), haematologic (anaemia, decreased folate, and folate deficiency), and nervous system related (mostly fatigue, dizziness, headache, agitation, and insomnia).
In summary, therefore, the safety of LMTM has been studied in over 2400 patients in Phase 1 and Phase 3 trials at repeat doses up to 450 mg/day. Even at the highest doses examined, the safety profile of LMTM remains benign and consistent with further clinical development.

[4] = LMTM in AD; cited from earlier work
Complex IV = conditions: tau transgenic mouse model; cited from earlier work
[5] = LMTM relative to MTC; cited from earlier work
SARS-CoV-2 [6] = conditions: advanced COVID-19 cases, treated vs not treated; cited from earlier work
SARS-CoV = conditions: cited from earlier work
SARS-CoV-2 [7] = conditions: cited from earlier work
SARS-CoV-2 [8] = conditions: 20 COVID-19 patients; cited from earlier work

For `Cc1cccc(/C=N/Nc2cc(N3CCOCC3)nc(OCCc3ccccn3)n2)c1` [Apilimod], the “inhibition of viral replication” value (SARS-CoV-2 [1]) is given as “inhibited viral replication”.
For `CN(C)c1ccc2c(c1)Sc1cc(N(C)C)ccc1N2.CS(=O)(=O)O.CS(=O)(=O)O` [LMTM, N,N,N′,N′-tetramethyl-10H-phenothiazine-3,7-diaminium bis(hydromethanesulfonate)], the “better uptake into red cells” value (red cells) is given as 20 fold, the “equivalent doses of LMTM” value [2] is given as 12 - 27 mg/MT per day and the “change in RBC count, haemoglobin and haematocrit” value ([3]; LMTM 8 mg/day) is given as “minimal change”. For the same compound, the “subjects discontinued due to adverse events” value ([3]; LMTM 8 mg/day) was 6%, the “vital sign measurements, ECGs, or the C-SSRS” value ([3]; Phase 3 studies) was “No clinically meaningful trends” and the “RBC count, haemoglobin and haematocrit” value ([3]; greater decreases in the higher dose groups (150 to 250 mg/day) compared to 8 mg/day) was “dose-dependent decreases”. The “subjects discontinuing due to adverse events” value ([3]; higher LMTM doses of 150 to 250 mg/day) was 14%, the “incidence of anaemia-related TEAEs, gastrointestinal events and genitourinary events” value ([3]; higher LMTM doses, 150 to 250 mg/day) was “dose-related increase” and the safety profile ([3]; over 2400 patients in Phase 1 and Phase 3 trials, repeat doses up to 450 mg/day) was “benign”. For the same compound, the cardiotoxicity (Cardiotoxicity) was “does not have the cardiotoxicity”, the “minimum effective dose required for anti-dementia effects” value [4] was 8 mg/day and the optimally effective dose [4] was 16 mg/day. The “brain Complex IV activity” value (Complex IV) was “enhance brain Complex IV activity” and the “better brain:plasma ratio” value [5] was “more than 60 fold”.
For `CC(C)(O)c1ccc2c(c1)/C(=C/CCN1CC[C@](O)(c3ccc(Cl)cc3)C(C)(C)C1)c1cccnc1CO2` [MLN-3897], the “inhibition of viral replication” value (SARS-CoV-2 [1]) is given as “inhibited viral replication”.
For `C[C@@H]1CS/C(=N\NC(=O)C(=O)[C@@H](NC(=O)C2CCCCCC2)C2CCOCC2)N1C` [ONO 5334], the “inhibition of viral replication” value (SARS-CoV-2 [1]) is listed as “inhibited viral replication”.
In the case of `CC[C@H](NC(=O)[C@H](CS(=O)(=O)CC1CC1)N[C@@H](c1ccc(F)cc1)C(F)(F)F)C(=O)C(=O)NC1CC1` [VBY-825], the “inhibition of viral replication” value (SARS-CoV-2 [1]) is listed as “inhibited viral replication”.
For `CC(C)CC(NC(=O)OCc1ccccc1)C(=O)NC(C(=O)NCC(=O)C=[N+]=[N-])C(C)C` (stereo not drawn) [Z LVG CHN2] (Cbz-Leu-Val-Gly-CHN2; configuration not given here), the “inhibition of viral replication” value (SARS-CoV-2 [1]) is given as “inhibited viral replication”.
For `CCN(CC)CCCC(C)Nc1ccnc2cc(Cl)ccc12` (centres unmarked) [chloroquine], the “benefit in advanced cases (mortality rates)” value (SARS-CoV-2 [6]) is listed as “no benefit”, the “effectiveness against SARS-CoV in vitro” value (SARS-CoV) is listed as “effectiveness” and the “effectiveness against SARS-CoV-2 in vitro” value (SARS-CoV-2 [7]) is listed as “effectiveness”.
In the case of `CCN(CCO)CCCC(C)Nc1ccnc2cc(Cl)ccc12` (centres unmarked) [hydroxychloroquine], the “viral load in nasal swabs” value (SARS-CoV-2 [8]) is listed as “significantly reduced viral load”.
